Some test systems named below: HCT-116 colon; IGROV1 ovarian; SF-295 CNS; HOP-92 NSCLC; OVCAR-3 ovarian; HOP-62 NSCLC; PC-3 prostate; MDA-MB-231 breast; TK-10 renal; SF-268 CNS.
Common to all, as to assay: growth of human tumour cells (NCI), 48 h

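Assay format: 96-well plates, 48-hour exposure. GI50 = concentration required for 50% inhibition of growth. Definition used: TGI = concentration required for complete inhibition of growth.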

As to `Cc1nn2c(/C=C3\C(=O)Nc4ccc(Cl)cc43)c(C)nc2s1`, the GI50 in the experiment with HCT-116 colon was 30.2 µM; with IGROV1 ovarian it was 23.7 µM; in the experiment with SF-295 CNS it was 16.7 µM; in the experiment on HOP-92 NSCLC, above 100 µM; in the experiment on OVCAR-3 ovarian, 23.3 µM; in the experiment with HOP-62 NSCLC, 61.1 µM. Further, the GI50 is 21.3 µM in the experiment on PC-3 prostate, above 100 µM in the experiment with MDA-MB-231 breast, above 100 µM with TK-10 renal and 43.2 µM in the experiment on SF-268 CNS. The TGI in the experiment on HCT-116 colon, in the experiment on IGROV1 ovarian, in the experiment with SF-295 CNS, in the experiment on HOP-92 NSCLC, in the experiment with OVCAR-3 ovarian and in the experiment on HOP-62 NSCLC was above 100 µM each time. Besides, the TGI in the experiment with PC-3 prostate, in the experiment with MDA-MB-231 breast, in the experiment with TK-10 renal and in the experiment on SF-268 CNS was above 100 µM each time.
`COc1cc([N+](=O)[O-])c(OC)cc1-c1nc2sc(Cl)cn2c1/C(N)=N/C(=N)N`: the GI50 was 2.41 µM in the experiment on HCT-116 colon; 5.18 µM in the experiment on IGROV1 ovarian; 9.94 µM in the experiment with SF-295 CNS; 7.06 µM in the experiment on HOP-92 NSCLC; 1.72 µM in the experiment on OVCAR-3 ovarian; 6.32 µM with HOP-62 NSCLC. Besides, the GI50 is 3.22 µM in the experiment with PC-3 prostate, 2.19 µM in the experiment on MDA-MB-231 breast, 7.31 µM in the experiment with TK-10 renal and 4.17 µM with SF-268 CNS. For the same compound, the TGI with HCT-116 colon is 6.41 µM; in the experiment on IGROV1 ovarian, above 54.6 µM; with SF-295 CNS, 36.7 µM; in the experiment with HOP-92 NSCLC, 24 µM; in the experiment with OVCAR-3 ovarian, 3.45 µM; in the experiment with HOP-62 NSCLC, 17.3 µM. Moreover, the TGI with PC-3 prostate came out at 13 µM; in the experiment with MDA-MB-231 breast, 8.25 µM; in the experiment with TK-10 renal, 24.3 µM; with SF-268 CNS it was 11.8 µM.
Regarding `C=C1C(=O)O[C@H]2[C@H]1CC/C(COC(=O)NCc1ccc(Cn3c(=O)sn(CCCl)c3=O)cc1)=C\CC[C@@]1(C)O[C@@H]21`, the GI50 in the experiment with HCT-116 colon is 1.62 µM; in the experiment with IGROV1 ovarian, 2.5 µM; in the experiment on SF-295 CNS, 16.4 µM; in the experiment on HOP-92 NSCLC, 1.5 µM; in the experiment on OVCAR-3 ovarian, 1.53 µM; in the experiment with HOP-62 NSCLC, 16.3 µM. In addition, the GI50 in the experiment with PC-3 prostate was 8.09 µM; in the experiment with MDA-MB-231 breast, 1.89 µM; in the experiment with TK-10 renal it was 1.77 µM; in the experiment with SF-268 CNS, 3.73 µM. The TGI in the experiment with HCT-116 colon stood at 3.08 µM; with IGROV1 ovarian it was 6.79 µM; in the experiment on SF-295 CNS, 30.3 µM; with HOP-92 NSCLC, 3.22 µM; with OVCAR-3 ovarian it was 2.88 µM; in the experiment with HOP-62 NSCLC, 31.5 µM. In addition, the TGI in the experiment on PC-3 prostate stood at 21 µM; in the experiment on MDA-MB-231 breast it was 3.68 µM; with TK-10 renal it was 3.43 µM; with SF-268 CNS, 14.6 µM.
For the compound `O=C1c2ccccc2C(O)(O)C1(O)C1(O)C(=O)c2ccccc2C1(O)O` (configuration not stated), the TGI in the experiment on HCT-116 colon is 54.1 µM; in the experiment on IGROV1 ovarian, above 100 µM; in the experiment on SF-295 CNS it was 88.5 µM; in the experiment with HOP-92 NSCLC it was above 100 µM; in the experiment with OVCAR-3 ovarian, 65.9 µM; with HOP-62 NSCLC, 54.1 µM. The TGI in the experiment with PC-3 prostate was above 100 µM; with MDA-MB-231 breast, above 100 µM; with TK-10 renal, 58.1 µM; in the experiment with SF-268 CNS it was above 100 µM.
Turning to `C=C(C)C(=O)O[C@H]1CC(=C)[C@@H]2C[C@H](O)[C@](O)(CCl)[C@@H]2[C@H]2OC(=O)C(=C)[C@@H]21`, the GI50 was 1.67 µM with HCT-116 colon; 2.71 µM in the experiment on IGROV1 ovarian; 12.3 µM with SF-295 CNS; 2.69 µM in the experiment on HOP-92 NSCLC; 1.81 µM in the experiment on OVCAR-3 ovarian; 10.5 µM in the experiment with HOP-62 NSCLC. The GI50 in the experiment with PC-3 prostate was 3.03 µM; in the experiment on MDA-MB-231 breast, 4.28 µM; in the experiment on TK-10 renal it was 0.512 µM; with SF-268 CNS it was 3.76 µM. Besides, the TGI came to 3.19 µM with HCT-116 colon; 10.4 µM in the experiment on IGROV1 ovarian; 26.4 µM in the experiment with SF-295 CNS; 6.33 µM in the experiment with HOP-92 NSCLC; 4.38 µM in the experiment on OVCAR-3 ovarian; 23.3 µM in the experiment on HOP-62 NSCLC. Besides, the TGI with PC-3 prostate worked out at 10.4 µM; in the experiment on MDA-MB-231 breast, 13.6 µM; in the experiment on TK-10 renal, 1.82 µM; with SF-268 CNS it was 17.4 µM.
Take `Cc1cccc(C)c1NC(=O)C(C#N)C1=C(Cl)C(=O)c2ccccc2C1=O` (configuration not stated): the TGI with HCT-116 colon was determined as 30.6 µM; with IGROV1 ovarian, 31.8 µM; with SF-295 CNS, 32.5 µM; in the experiment on HOP-92 NSCLC it was 22.4 µM; with OVCAR-3 ovarian it was 26.9 µM; with HOP-62 NSCLC, 32.9 µM. In addition, the TGI with PC-3 prostate came out at 28.9 µM; in the experiment with MDA-MB-231 breast, 49.7 µM; in the experiment with TK-10 renal, 33.7 µM; in the experiment with SF-268 CNS, 31.6 µM.
With `COc1ccc2nc3cccc([N+](=O)[O-])c3c(NCCCCCC(=O)O)c2c1`, the GI50 in the experiment on HCT-116 colon was 0.0107 µM; with IGROV1 ovarian, 0.231 µM; in the experiment with SF-295 CNS, 0.447 µM; with HOP-92 NSCLC, 0.0878 µM; with OVCAR-3 ovarian it was 0.12 µM; in the experiment on HOP-62 NSCLC it was 0.0277 µM. For the same compound, the GI50 is 0.838 µM in the experiment on MDA-MB-231 breast, 1.72 µM with TK-10 renal and 0.0755 µM in the experiment with SF-268 CNS. The TGI in the experiment on HCT-116 colon stood at 3.51 µM; in the experiment on IGROV1 ovarian, 1.16 µM; with SF-295 CNS, 4.55 µM; in the experiment on HOP-92 NSCLC it was 0.456 µM; in the experiment on OVCAR-3 ovarian, 2.64 µM; in the experiment on HOP-62 NSCLC, 0.187 µM. Further, the TGI with PC-3 prostate came to 1.36 µM; with MDA-MB-231 breast, 74 µM; in the experiment on TK-10 renal, 17.6 µM; with SF-268 CNS, 0.701 µM.
With `COc1ccc(-c2nc(-c3nc4ccc(OC)cc4[nH]3)c3ccccn23)cc1`, the GI50 in the experiment on HCT-116 colon was 3.63 µM; in the experiment on IGROV1 ovarian, 2.7 µM; in the experiment with HOP-92 NSCLC it was 2.31 µM; with OVCAR-3 ovarian, 4.97 µM; with HOP-62 NSCLC it was 5.07 µM; with PC-3 prostate, 3.01 µM. The figures for the GI50 in the experiment with MDA-MB-231 breast, in the experiment on TK-10 renal and with SF-268 CNS were 5.65 µM, 2.65 µM and 4.53 µM, respectively. Moreover, the TGI is 13.1 µM in the experiment with HCT-116 colon; 6.98 µM in the experiment with IGROV1 ovarian; 8.4 µM in the experiment with HOP-92 NSCLC; 62.1 µM with OVCAR-3 ovarian; above 100 µM with HOP-62 NSCLC; 32.2 µM in the experiment on PC-3 prostate. For the same compound, the TGI in the experiment on MDA-MB-231 breast was above 100 µM; in the experiment with TK-10 renal, 25.6 µM; in the experiment with SF-268 CNS it was 64.3 µM.

Values taken from PubChem BioAssay (NCI).
